# Measurements: patent publication EP0435794A1, “Alkenyl- or heteroaryl thio, sulfone, sulfoxy herbicides” (RHONE-POULENC AGROCHIMIE, priority 1989, dated 1991)
# Legend:
# Assay type in all cases: in vivo
# Alopecurus myosuroïdes = experiment: Exemple A: herbicide application, pre-emergence; settings: dose 4 Kg m.a./ha, notation 0 à 5 after 24 days
# From the text: (§1) Exemple A - Application herbicide, en prélevée des espèces végétales
# (§2) Dans des pots de 7 x 7 x 8 cm remplis de terre agricole légère, on sème un nombre de graines déterminé en fonction de l'espèce végétale et de la grosseur de la graine.
# (§3) Les pots sont traités par pulvérisation de bouillie en quantité correspondant à une dose volumique d'application de 500 l/ha et contenant la matière active à la concentration désirée.
# (§4) Le traitement avec la bouillie est donc effectué sur des graines non recouvertes de terre (on utilise le terme de bouillie pour désigner, en général, les compositions diluées à l'eau, telles qu'on les applique sur les végétaux).
# (§5) La bouillie utilisée pour le traitement est une solution ou suspension de la matière active dans un mélange acétone/eau en proportions 50/50, en présence de 0,05 % en poids de cemulsol NP 10 (agent tensio-actif) constitué d'alkylphénol polyéthoxylé, notamment de nonylphénol polyéthoxylé) et 0,04 % en poids de tween 20 (agent tensio-actif constitué d'un oléate de dérivé polyoxyéthyléné du sorbitol).
# (§6) Dans le cas d'une suspension, celle-ci est obtenue en mélangeant et broyant les ingrédients dans un microniseur de façon à obtenir une grosseur moyenne de particules inférieure à 40 microns.
# (§7) Après traitement, on recouvre les graines d'une couche de terre d'environ 3 mm d'épaisseur.
# (§8) Les pots sont alors placés dans des bacs destinés à recevoir l'eau d'arrosage, en subirrigation, et maintenus pendant 24 jours à température ambiante sous 70 % d'humidité relative.
# (§9) Le relevé est effectué de la façon suivante:
# (§10) Au bout de 24 jours, on mesure un pourcentage (D) des destructions du nombre de pieds dans le pot traité par rapport au nombre de plantes dans les pots non traités (témoin). On mesure, sur les plantes traitées restantes, le pourcentage de réduction de taille (RT) par rapport aux plantes témoin.
# (§11) Le pourcentage du volume foliaire non détruit par le produit est donc donné par la formule: ([100-D] x [100-RT])/(100)= A [formula]
# (§12) Cette valeur A est transformée en notation de 0 à 5 selon l'échelle suivante:
# (§13) Les résultats obtenus sont présentés après l'exemple B pour des doses d'application de 4000 g/ha à 1000 g/ha.
# (§14) Les espèces végétales utilisées dans ces exemples A et B sont: […]
# Avena fatua = experiment: Exemple A: herbicide application, pre-emergence; settings: dose 4 Kg m.a./ha, notation 0 à 5 after 24 days
# From the text: as §1, §2, §3, §4, §5, §6, §7, §8, §9, §10, §11, §12, §13, §14
# Cyperus esculentus = experiment: Exemple A: herbicide application, pre-emergence; settings: dose 4 Kg m.a./ha, notation 0 à 5 after 24 days
# From the text: as §1, §2, §3, §4, §5, §6, §7, §8, §9, §10, §11, §12, §13, §14
# Digitaria sanguinalis = experiment: Exemple A: herbicide application, pre-emergence; settings: dose 4 Kg m.a./ha, notation 0 à 5 after 24 days
# From the text: as §1, §2, §3, §4, §5, §6, §7, §8, §9, §10, §11, §12, §13, §14
# Echinochloa crus galli [1] = experiment: Exemple A: herbicide application, pre-emergence; settings: dose 4 Kg m.a./ha, notation 0 à 5 after 24 days
# From the text: as §1, §2, §3, §4, §5, §6, §7, §8, §9, §10, §11, §12, §13, §14
# [2] = tested on: ORYSA SATIVA Cv Nihonbare; experiment: Exemple D: herbicide application on submerged plants (rice paddy model), transplanted rice; settings: rice transplanted 4 days before treatment, 24 days
# From the text: (§15) Exemple D : Application herbicide en pré ou post levée d'espèces végétales submergées (modèle rizière)
# (§16) Dans des pots de 9 x 9 x 9 cm remplis de terre agricole on sème un nombre de graines ou on plante un nombre de bulbes ou rhizomes déterminé en fonction de l'espèce végétale ou de la grosseur des organes. Pour le riz, 4 plants au stade 2-3 feuilles sont transplantés dans un pot rempli de terre végétale 4 jours avant le traitement.
# (§17) Les pots sont ensuite immergés dans un bac de taille adapté aux pots de manière à ce que l'eau recouvre de 1 à 2 cm la surface du sol.
# (§18) Le stade de traitement est le stade prélevée ou 1 à 2 feuilles développées des adventices. Le traitement est effectué par répartition de la bouillie dans l'eau de submersion en quantité correspondant à une dose d'application de 500 l/ha et contenant la matière active à la concentration requise.
# as §5, with “proportion” for “proportions”, “Cemulsol” for “cemulsol”, “tensioactif” for “tensio-actif)”
# (§19) Dans le cas d'une suspension, celle-ci est obtenue en mélangeant et broyant les ingrédients dans un microniseur de façon à obtenir une grosseur moyenne de particules inférieures à 40 microns.
# (§20) Le niveau d'eau de submersion est ensuite maintenu par apport d'eau tout au long de la durée de l'expérimentation soit […]. Les bacs contenant les pots sont placés dans une serre régulée en température à 18°C la nuit et 22°C le jour et en humidité à 70 % d'humidité relative.
# (§21) Au bout de 24 jours, on compte le nombre de plantes vivantes dans les pots traités par la bouillie contenant la matière active à tester et le nombre de plantes vivantes dans un pot témoin traité selon les mêmes conditions, mais au moyen d'une bouillie ne contenant pas de matière active. On mesure ainsi un pourcentage (D) des destructions du nombre de pieds dans le pot traité par rapport au nombre de plantes dans les pots non traités (témoin). On mesure, sur les plantes traitées restantes, le pourcentage de réduction de taille (RT) par rapport aux plantes témoin. Le pourcentage du volume foliaire non détruit par le produit est donc donné par la formule: ([100-D] x [100-RT])/(100)= A [formula]
# as §12
# (§22) Les résultats obtenus sont présentés dans le tableau suivant pour des doses d'application de 500, 1000 ou 2000 g de matière active par hectare.
# COMPOSE N°5/RIZ (transplanté 4 jours avant traitement)
# ALISMA CANALICULATUM = experiment: Exemple D: herbicide application pre or post emergence on submerged plants (rice paddy model); settings: 2-leaf stage, 24 days
# From the text: as §15, §16, §17, §18
# as §5, with “proportion” for “proportions”, “Cemulsol” for “cemulsol”, “tensioactif” for “tensio-actif)”
# as §19, §20, §21, §12, §22
# CYPERUS SEROTINUS = experiment: as above; settings: 24 days; for % d'efficacité CYPERUS SEROTINUS (1 feuille): 1-leaf stage; for % d'efficacité CYPERUS SEROTINUS (prélevée): pre-emergence
# From the text: as §15, §16, §17, §18
# as §5, with “proportion” for “proportions”, “Cemulsol” for “cemulsol”, “tensioactif” for “tensio-actif)”
# as §19, §20, §21, §12, §22
# Echinochloa crus galli [3] = experiment: as above; settings: 24 days; for % d'efficacité ECHINOCHLOA CRUS GALLI (1 feuille): 1-leaf stage; for % d'efficacité ECHINOCHLOA CRUS GALLI (prélevée): pre-emergence
# From the text: as §15, §16, §17, §18
# as §5, with “proportion” for “proportions”, “Cemulsol” for “cemulsol”, “tensioactif” for “tensio-actif)”
# as §19, §20, §21, §12, §22
# [4] = 500 g de matière active par hectare
# [5] = 1000 g de matière active par hectare
# [6] = 2000 g de matière active par hectare
smiles,measurement,setting,value
"C=C(CS(=O)(=O)c1sccc1Cl)c1cccc(F)c1 [compound 5, 1-[(3-chloro 2-thiényl)sulfonyl] 2-(3-fluorophényl) 2-propène]",ACTIVITE HERBICIDE DE PRELEVEE ALO,Alopecurus myosuroïdes,5 (O à 10)
same,ACTIVITE HERBICIDE DE PRELEVEE AVE,Avena fatua,5 (O à 10)
same,ACTIVITE HERBICIDE DE PRELEVEE CYP,Cyperus esculentus,5 (O à 10)
same,ACTIVITE HERBICIDE DE PRELEVEE DIG,Digitaria sanguinalis,5 (O à 10)
same,ACTIVITE HERBICIDE DE PRELEVEE ECH,Echinochloa crus galli [1],5 (O à 10)
same,% d'efficacité ORYSA SATIVA Cv Nihonbare,[2]; [4],0 (90 à 100)
same,% d'efficacité ORYSA SATIVA Cv Nihonbare,[2]; [5],0 (90 à 100)
same,% d'efficacité ORYSA SATIVA Cv Nihonbare,[2]; [6],0 (90 à 100)
same,% d'efficacité ALISMA CANALICULATUM (2 feuilles),ALISMA CANALICULATUM; [4],3 (30 à 50)
same,% d'efficacité ALISMA CANALICULATUM (2 feuilles),ALISMA CANALICULATUM; [5],4 (10 à 30)
same,% d'efficacité ALISMA CANALICULATUM (2 feuilles),ALISMA CANALICULATUM; [6],4 (10 à 30)
same,% d'efficacité CYPERUS SEROTINUS (1 feuille),CYPERUS SEROTINUS; [4],3 (30 à 50)
same,% d'efficacité CYPERUS SEROTINUS (1 feuille),CYPERUS SEROTINUS; [5],4 (10 à 30)
same,% d'efficacité CYPERUS SEROTINUS (1 feuille),CYPERUS SEROTINUS; [6],5 (0 à 10)
same,% d'efficacité CYPERUS SEROTINUS (prélevée),CYPERUS SEROTINUS; [4],2 (50 à 70)
same,% d'efficacité CYPERUS SEROTINUS (prélevée),CYPERUS SEROTINUS; [5],5 (0 à 10)
same,% d'efficacité CYPERUS SEROTINUS (prélevée),CYPERUS SEROTINUS; [6],5 (0 à 10)
same,% d'efficacité ECHINOCHLOA CRUS GALLI (1 feuille),Echinochloa crus galli [3]; [4],4 (10 à 30)
same,% d'efficacité ECHINOCHLOA CRUS GALLI (1 feuille),Echinochloa crus galli [3]; [5],4 (10 à 30)
same,% d'efficacité ECHINOCHLOA CRUS GALLI (1 feuille),Echinochloa crus galli [3]; [6],4 (10 à 30)
same,% d'efficacité ECHINOCHLOA CRUS GALLI (prélevée),Echinochloa crus galli [3]; [4],5 (0 à 10)
same,% d'efficacité ECHINOCHLOA CRUS GALLI (prélevée),Echinochloa crus galli [3]; [5],5 (0 à 10)
same,% d'efficacité ECHINOCHLOA CRUS GALLI (prélevée),Echinochloa crus galli [3]; [6],5 (0 à 10)
